Data on 3 compounds can be found in patent publication US20040192905A1, “Polymerizable monomers and process of preparation thereof” (priority 2003, published 2004).

pIC50: −log10 of the molar value.

The target in test [1] is T1, lysozyme (Gallus gallus, UniProt P00698). Put plainly: Estimation of binding constant (Kb) by fluorescence spectrophotometric method. The conditions noted are these: relative to NAG. Here is the method: Estimation of binding constant (Kb) of monomers containing NAG by fluorescence spectrophotometric method and the enhancement resulting from conjugation with monomers and monomer containing spacer.
T1 sequence (P00698 19-147): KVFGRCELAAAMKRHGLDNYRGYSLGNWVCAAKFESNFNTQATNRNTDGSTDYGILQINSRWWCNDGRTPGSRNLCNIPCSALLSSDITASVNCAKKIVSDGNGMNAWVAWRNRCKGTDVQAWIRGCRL
Fluorescence spectra of lysozyme were recorded on a Perkin Elmer LS-50 B luminescence spectrophotometer. Excitation frequency was 285 nm, Solutions of lysozyme and N-Acetyl Glucosamine were prepared in 0.066 M phosphate buffer pH 6.2, containing 0.0154 M sodium chloride and 0.008 M sodium azide. 0 1 milliliter of lysozyme 80 μg/ml was mixed with solution containing different ligand concentration in a 2 ml capacity 10 mm square quartz cells maintained at 18 0 C.
Phosphate buffer was added to make the volume to 2 ml. The fluorescence intensities of the solutions were measured, relative to the solutions containing enzymes and buffer mixtures of the identical concentrations reference. […]

In test [2] the target is T1, lysozyme. In words: Estimation of relative inhibition of lysozyme (Micrococcus lysodeikticus substrate, absorbance at 450 nm). Format: biochemical. The conditions noted are these: for 1max: ligand concentration at Imax; for Imax: maximum relative inhibition of lysozyme; for pIC50: phosphate buffer pH 6.2, 20 C, Micrococcus lysodeikticus substrate, read-out: I50. The procedure: This example describes the estimation of inhibition of lysozyme by monomers Micrococcus lysodeikticus is a substrate for the enzyme lysozyme. Relative binding of monomers and monomers linked to NAG through the spacer arm was estimated by using a procedure reported by Neuberger and Wilson (1967).
1 5% w/v stock solutions of monomeric ligands was prepared in […] phosphate buffer pH 6.2 containing 0.01 54 m sodium chloride and 0.008 M sodium azide. One milliliter of stock solution containing different ligand concentration was mixed with 1.6 ml of 78 Jig/ml of Micrococcus lysodeikticus in a 3-ml capacity glass cuvette. The mixture was incubated for 5 minutes at 20 0 C. To this mixture 0.1 ml of lysozyme (27 μg/ml) was added and mixed thoroughly. The relative absorbance at 450 nm (Δ450) was recorded for 30 seconds. A blank reading without the ligand was noted and the change in the absorbance per second was calculated. Then relative inhibition was calculated

On to `C=CC(=O)OC[C@H]1OC(O)[C@H](NC(C)=O)[C@@H](O)[C@@H]1O` (stereo partly shown) [Ac. NAG, Acryloyl N-Acetyl Glacosamine], for which the “increase in binding constant compared to N-Acetyl Glucosamine” value at lysozyme [1] is listed as 74 times. Moreover, on lysozyme [2], the “1max” value is 14.81 mM, the Imax is listed as 50.00 and the pIC50 is 1.83.

Take `CC(=O)N[C@H]1C(O)O[C@H](CO)[C@@H](O)[C@@H]1O` (stereo partly shown) [NAG, N-Acetyl Glucosamine, reference compound]: on lysozyme [2], the “1max” value is on record as 92.5 mM, the Imax is 55.29 and the pIC50 is 1.13.

For “Acryloyl 6-Amino Caproic Acid N-Acetyl Glucosamine [Ac 6ACA.NAG]”, on lysozyme [2], the “1max” value was 0.036 mM, the Imax was 52.5 and the pIC50 is 4.46.
